This is an account of results in patent US10973832B2, “Muscarinic M1 receptor agonists” (Heptares Therapeutics Limited, priority 2011, dated 2021).

Assay type in all cases: cell-based
Assay [1] concerns the target T1, human muscarinic M2 receptor (Homo sapiens, UniProt P08172).
T1 sequence (P08172 1-466): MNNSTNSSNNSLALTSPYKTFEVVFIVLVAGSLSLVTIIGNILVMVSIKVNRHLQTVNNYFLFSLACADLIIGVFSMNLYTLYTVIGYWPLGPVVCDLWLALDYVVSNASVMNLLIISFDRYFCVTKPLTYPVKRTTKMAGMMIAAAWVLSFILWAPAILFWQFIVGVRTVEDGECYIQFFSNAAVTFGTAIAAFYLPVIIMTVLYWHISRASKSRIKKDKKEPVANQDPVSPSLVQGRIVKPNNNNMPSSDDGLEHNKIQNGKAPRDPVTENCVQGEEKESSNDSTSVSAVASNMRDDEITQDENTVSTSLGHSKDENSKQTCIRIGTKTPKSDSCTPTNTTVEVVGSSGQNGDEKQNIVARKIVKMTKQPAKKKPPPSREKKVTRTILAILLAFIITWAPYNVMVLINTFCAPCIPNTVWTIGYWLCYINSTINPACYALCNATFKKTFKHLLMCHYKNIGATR
Description: Phospho-ERK1/2 assay, muscarinic M2. The settings on record: for EC50: CHO cells expressing human M2, phospho-ERK1/2 Alphascreen, read-out: pEC50 M2 (converted); for Emax: CHO, read-out: % Emax cf. ACh (M2). As for the experimental part:
(§1) Functional assays were performed using the Alphascreen Surefire phospho-ERK1/2 assay (Crouch & Osmond, Comb. Chem. High Throughput Screen, 2008). ERK1/2 phosphorylation is a downstream consequence of both Gq/11 and Gi/o protein coupled receptor activation, making it highly suitable for the assessment of M1, M3 (Gq/11 coupled) and M2, M4 receptors (Gi/o coupled), rather than using different assay formats for different receptor subtypes. CHO cells stably expressing the human muscarinic M1, M2, M3 or M4 receptor were plated (25K/well) onto 96-well tissue culture plates in MEM-alpha+10% dialysed FBS. Once adhered, cells were serum-starved overnight. Agonist stimulation was performed by the addition of 5 μL agonist to the cells for 5 min (37° C.). Media was removed and 50 μL of lysis buffer added. After 15 min, a 4 μL sample was transferred to 384-well plate and 7 μL of detection mixture added. Plates were incubated for 2 h with gentle agitation in the dark and then read on a PHERAstar plate reader.
(§2) pEC50 and Emax figures were calculated from the resulting data for each receptor subtype.

In assay [2] the target is T2, human muscarinic M3 receptor (Homo sapiens, UniProt P20309).
T2 construct: expressed in transfected cells
T2 sequence (P20309 whole entry): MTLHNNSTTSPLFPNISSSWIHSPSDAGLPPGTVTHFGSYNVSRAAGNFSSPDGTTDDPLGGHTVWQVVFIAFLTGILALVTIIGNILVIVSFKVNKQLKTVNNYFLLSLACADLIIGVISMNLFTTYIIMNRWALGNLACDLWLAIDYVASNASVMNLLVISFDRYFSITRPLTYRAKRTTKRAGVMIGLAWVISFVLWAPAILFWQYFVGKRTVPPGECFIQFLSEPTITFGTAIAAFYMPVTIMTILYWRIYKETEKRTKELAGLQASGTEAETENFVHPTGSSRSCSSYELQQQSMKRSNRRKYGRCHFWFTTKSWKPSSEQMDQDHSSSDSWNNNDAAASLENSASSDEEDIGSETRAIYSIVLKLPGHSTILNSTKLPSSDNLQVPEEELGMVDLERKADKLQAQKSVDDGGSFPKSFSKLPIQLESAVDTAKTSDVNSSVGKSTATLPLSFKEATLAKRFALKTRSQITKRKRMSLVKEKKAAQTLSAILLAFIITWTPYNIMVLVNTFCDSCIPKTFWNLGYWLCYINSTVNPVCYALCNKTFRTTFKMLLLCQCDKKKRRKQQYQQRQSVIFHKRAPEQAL
Description: Phospho-ERK1/2 assay, muscarinic M3. The note with it: for EC50: CHO cells expressing human M3, phospho-ERK1/2 Alphascreen, read-out: pEC50 M3 (converted); for Emax: CHO, read-out: % Emax cf. ACh (M3). As for the experimental part:
as §1, §2

Assay [3] deals with T3, human muscarinic M4 receptor (Homo sapiens, UniProt P08173).
T3 construct: expressed in transfected cells
T3 sequence (P08173 1-479): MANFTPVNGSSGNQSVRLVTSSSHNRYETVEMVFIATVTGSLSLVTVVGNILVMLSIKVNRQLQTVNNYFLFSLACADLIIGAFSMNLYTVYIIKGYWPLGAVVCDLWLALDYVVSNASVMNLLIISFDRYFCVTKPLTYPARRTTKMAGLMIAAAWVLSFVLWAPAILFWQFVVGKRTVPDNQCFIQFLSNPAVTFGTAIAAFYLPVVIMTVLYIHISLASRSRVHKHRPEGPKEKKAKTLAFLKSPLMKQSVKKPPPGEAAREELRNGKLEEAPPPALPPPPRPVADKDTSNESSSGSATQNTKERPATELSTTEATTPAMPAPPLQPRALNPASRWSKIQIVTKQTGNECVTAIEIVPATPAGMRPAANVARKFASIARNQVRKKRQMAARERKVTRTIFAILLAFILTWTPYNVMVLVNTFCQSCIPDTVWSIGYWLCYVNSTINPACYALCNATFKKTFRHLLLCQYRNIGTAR
Description: Phospho-ERK1/2 assay, muscarinic M4. The note with it: for EC50: CHO cells expressing human M4, phospho-ERK1/2 Alphascreen, read-out: pEC50 M4 (converted); for Emax: CHO, read-out: % Emax cf. ACh (M4). As for the experimental part:
as §1, §2

Assay [4] has as its target T4, human muscarinic M1 receptor (Homo sapiens, UniProt P11229).
T4 sequence (P11229 1-460): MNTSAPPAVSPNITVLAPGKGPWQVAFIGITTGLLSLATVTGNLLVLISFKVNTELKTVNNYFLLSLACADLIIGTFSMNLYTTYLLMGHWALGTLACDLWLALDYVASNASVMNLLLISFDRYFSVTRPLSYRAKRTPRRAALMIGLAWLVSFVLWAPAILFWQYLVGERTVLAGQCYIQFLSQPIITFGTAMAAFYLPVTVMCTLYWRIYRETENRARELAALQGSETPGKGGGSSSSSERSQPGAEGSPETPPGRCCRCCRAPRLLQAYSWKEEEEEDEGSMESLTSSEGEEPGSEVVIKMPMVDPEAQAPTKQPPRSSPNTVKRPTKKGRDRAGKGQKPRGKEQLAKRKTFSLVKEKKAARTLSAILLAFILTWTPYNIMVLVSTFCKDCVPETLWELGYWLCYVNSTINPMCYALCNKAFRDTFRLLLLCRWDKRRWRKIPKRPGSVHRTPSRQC
The experiment in a line: Phospho-ERK1/2 assay, muscarinic M1. The settings on record: for EC50: CHO cells expressing human M1, phospho-ERK1/2 Alphascreen, read-out: pEC50 M1 (converted); for Emax: CHO, read-out: % Emax cf. ACh (M1). How it is done:
as §1, §2

For `CCOC(=O)N1CCCC(N2CCC(C(=O)NC(C)(C)C(C)C)CC2)CC1` (centres unmarked) [Example 31, ethyl 4-(4-((2,3-dimethylbutan-2-yl)carbamoyl)piperidin-1-yl)azepane-1-carboxylate], the EC50 in assay [1] is above 20 µM; in assay [2], above 20 µM; in assay [3], 123 nM; in assay [4], 31.6 nM. The Emax was found to be 0% in assay [1], 13% in assay [2], 90% in assay [3] and 122% in assay [4].
For the molecule `CCOC(=O)N1CCCC(N2CCC(C(=O)N(CC)CC3CC3)CC2)CC1` (centres unmarked) [Example 26, ethyl 4-(4-((cyclopropylmethyl)(ethyl)carbamoyl)piperidin-1-yl)azepane-1-carboxylate], the EC50 in assay [1] is above 20 µM; in assay [2], above 20 µM; in assay [3] it was 309 nM; in assay [4] it was 447 nM. The Emax in assay [1] was 7%; in assay [2] it was 0%; in assay [3] it was 51%; in assay [4], 95%.
For `CCOC(=O)N1CCCC(N2CCC(F)(C(=O)NC3(C)CCC3)CC2)CC1` (centres unmarked) [Example 50, ethyl 4-(4-fluoro-4-((1-methylcyclobutyl)carbamoyl)piperidin-1-yl)azepane-1-carboxylate], the EC50 was above 20 µM in assay [1], above 20 µM in assay [2], 603 nM in assay [3] and 19.5 nM in assay [4]. Also, the Emax in assay [1] was determined as 17%; in assay [2], 2%; in assay [3], 90%; in assay [4], 102%.
In the case of `CCOC(=O)N1CCCC(N2CCC(C(=O)NC3CCCC3)CC2)CC1` (centres unmarked) [Example 30, ethyl 4-(4-(cyclopentylcarbamoyl)piperidin-1-yl)azepane-1-carboxylate], the EC50 in assay [1] was above 20 µM; in assay [2], above 20 µM; in assay [3] it was 224 nM; in assay [4], 57.5 nM. The Emax in assay [1] amounted to 3%; in assay [2], 33%; in assay [3] it was 104%; in assay [4], 132%.
With `CCOC(=O)N1CCCC(N2CCC(C#N)(C(=O)NC3(C)CCC3)CC2)CC1` (centres unmarked) [Example 82, ethyl 4-{4-cyano-4-[(1-methylcyclobutyl)carbamoyl]piperidin-1-yl}azepane-1-carboxylate], the EC50 is above 20 µM in assay [1], above 20 µM in assay [2], 1620 nM in assay [3] and 55 nM in assay [4]. Further, the Emax in assay [1] is 16%; in assay [2], 2%; in assay [3], 81%; in assay [4] it was 89%.
`CCOC(=O)N1CCCC(N2CCC(C(=O)NCC(C)C3CC3)CC2)CC1` (centres unmarked) [Example 39, ethyl 4-(4-((2-cyclopropylpropyl)carbamoyl)piperidin-1-yl)azepane-1-carboxylate]: the EC50 in assay [1] is above 20 µM; in assay [2], above 20 µM; in assay [3], above 20000 nM; in assay [4], 72.4 nM. For the same molecule, the Emax in assay [1] came to 2%; in assay [2], 8%; in assay [3], 13%; in assay [4], 96%.
As for `CCOC(=O)N1CCCC(N2CCC(C(=O)NC(C)(C)C)CC2)CC1` (centres unmarked) [Example 7, ethyl 4-(4-((1,1-dimethylethyl)carbamoyl)piperidin-1-yl)azepane-1-carboxylate], the EC50 in assay [1] is above 20 µM; in assay [2], above 20 µM; in assay [3], 191 nM; in assay [4], 81.3 nM. Also, the Emax stood at 2% in assay [1], 14% in assay [2], 80% in assay [3] and 111% in assay [4].
As for `CCOC(=O)N1CCCC(N2CCC(C)(C(=O)NCC(C)C)CC2)CC1` (centres unmarked) [Example 56, ethyl 4-(4-methyl-4-((2-methylpropyl)carbamoyl)piperidin-1-yl)azepane-1-carboxylate], the EC50 in assay [1] is above 20 µM; in assay [2] it was above 20 µM; in assay [3], 1350 nM; in assay [4], 64.6 nM. Besides, the maximal response (Emax) in assay [1] came to 4%; in assay [2] it was 8%; in assay [3], 46%; in assay [4] it was 108%.
Regarding `CCOC(=O)N1CCCC(N2CCC(C(=O)NCC3(C)CCCC3)CC2)CC1` (centres unmarked) [Example 18], the EC50 in assay [1] was above 20 µM; in assay [2], above 20 µM; in assay [3], 589 nM; in assay [4], 83.2 nM. Besides, the Emax in assay [1] turned out to be 7%; in assay [2], 4%; in assay [3], 39%; in assay [4], 101%.
For the molecule `CCOC(=O)N1CCC[C@@H](N2CCC(C(=O)NCC(C)C)CC2)CC1` [Example 64], the EC50 in assay [1] was above 20 µM; in assay [2] it was above 20 µM; in assay [3], 3240 nM; in assay [4], 107 nM. Further, the Emax is 5% in assay [1], 9% in assay [2], 81% in assay [3] and 104% in assay [4].
With `CCOC(=O)N1CCCC(N2CCC(F)(C(=O)NC3CCC3)CC2)CC1` (centres unmarked) [Example 55, ethyl 4-(4-fluoro-4-((cyclobutyl)carbamoyl)piperidin-1-yl)azepane-1-carboxylate], the EC50 in assay [1] was above 20 µM; in assay [2], above 20 µM; in assay [3], 1350 nM; in assay [4], 186 nM. The Emax is 17% in assay [1], 0% in assay [2], 69% in assay [3] and 75% in assay [4].
With `CCOC(=O)N1CCCC(N2CCC(C(=O)NCC3CCC3)CC2)CC1` (centres unmarked) [Example 11, ethyl 4-(4-((cyclobutylmethyl)carbamoyl)piperidin-1-yl)azepane-1-carboxylate], the EC50 in assay [1] was above 20 µM; in assay [2], above 20 µM; in assay [3], 427 nM; in assay [4], 60.3 nM. The Emax in assay [1] was found to be 7%; in assay [2], 11%; in assay [3] it was 67%; in assay [4], 117%.
As for `CCOC(=O)N1CCCC(N2CCC(F)(C(=O)NC(C)(C)C(C)C)CC2)CC1` (centres unmarked) [Example 44, ethyl 4-(4-fluoro-4-((2,3-dimethylbutan-2-yl)carbamoyl)piperidin-1-yl)azepane-1-carboxylate], the EC50 in assay [1] was above 20 µM; in assay [2], above 20 µM; in assay [3], 417 nM; in assay [4], 31.6 nM. Besides, the Emax came to 19% in assay [1], 5% in assay [2], 113% in assay [3] and 104% in assay [4].
